US10899754B2, “Modulators of indoleamine 2,3-dioxygenase” (GLAXOSMITHKLINE INTELLECTUAL PROPERTY DEVELOPMENT LIMITED, priority 2016, dated 2021)

What was measured:
Type in all cases: cell-based
[1] = test system: human epithelial HeLa cells; experiment: HeLa cytotoxicity assay (CellTiter-Glo); details: pCC50
Method in brief: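 HeLa cells (5,000/well) stimulated with 10 nM IFN-γ, exposed to 11-point 3-fold compound dilutions for 2 days at 37 °C; viability by CellTiter-Glo ATP luminescence. Normalized to cell-free (100% cytotoxicity) and stimulated-cell DMSO (0%) controls; four-parameter fit gives pCC50.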

[2] = test system: human peripheral blood mononuclear cells (PBMC); experiment: PBMC cytotoxicity assay (CellTiter-Glo); details: 2 days, pCC50
Method in brief: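 Human PBMC (50,000 cells/well) stimulated with IFN-γ 100 ng/ml and LPS 50 ng/ml were exposed to 11-point 3-fold compound dilutions for 2 days at 37 °C, 5% CO2. Viability read by CellTiter-Glo ATP luminescence and normalized to no-cell and stimulated-DMSO controls. XC50 derived by four-parameter fit.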

[3] = biological target: T1, indoleamine 2, 3-dioxygenase (IDO1) (Homo sapiens, UniProt P14902); experiment: IDO1 PBMC RapidFire MS assay (kynurenine detection by mass spectrometry); design: to induce the expression of indoleamine 2, 3-dioxygenase (IDO1); host or cells: human PBMC stimulated with IFN-gamma and LPS; details: human PBMC stimulated with IFN-γ and LPS, 2 days, pIC50, read-out: PBMC PXC50 (converted)
Method in brief: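 PBMCs (50,000 cells/well) stimulated with IFN-γ 100 ng/ml plus LPS 50 ng/ml, treated with 11-point 3-fold compound series for 2 days at 37° C. Supernatant kynurenine measured by RapidFire MS, normalised to internal standard; parallel cytotoxicity by CellTiter-Glo luminescence; curves fitted for XC50.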

[4] = biological target: T1, indoleamine 2, 3-dioxygenase (IDO1); experiment: IDO1 HeLa RapidFire MS assay (kynurenine detection by mass spectrometry); design: to induce the expression of indoleamine 2, 3-dioxygenase (IDO1); details: HeLa cells, pIC50, read-out: IDO1_HELA_PXC50 (converted)
Method in brief: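 Compound potency reported as pIC50 from kynurenine/internal-standard ratio (RapidFire MS) in supernatant of IFN-γ-induced (10 nM) HeLa cells, 5,000 per well, after 2 days' treatment with 11-point dilutions. Cytotoxicity in the same format by luminescent ATP detection, reported as pCC50.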

T1 sequence (P14902 whole entry): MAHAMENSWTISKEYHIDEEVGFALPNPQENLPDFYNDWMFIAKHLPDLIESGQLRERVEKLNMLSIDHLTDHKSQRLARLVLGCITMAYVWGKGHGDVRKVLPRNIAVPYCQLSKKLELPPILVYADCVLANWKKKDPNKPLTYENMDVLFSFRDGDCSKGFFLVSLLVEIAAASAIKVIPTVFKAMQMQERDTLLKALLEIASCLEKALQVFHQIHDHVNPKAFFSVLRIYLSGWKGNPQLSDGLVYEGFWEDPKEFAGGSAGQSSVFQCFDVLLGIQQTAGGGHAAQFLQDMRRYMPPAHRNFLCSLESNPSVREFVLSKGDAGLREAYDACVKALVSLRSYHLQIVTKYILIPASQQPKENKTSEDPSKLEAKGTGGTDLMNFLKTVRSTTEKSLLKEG

Row | Structure (SMILES) | HELA_IDO1_TOX_PXC50 [1] | PBMC TOX PXC50 [2] | IC50 [3] [nM] | IC50 [4] [nM]
1 | CC(C)CN(CC(C)C)c1ccc(C2CC2C(=O)O)cc1Nc1nc(C(F)(F)F)ns1 (stereo not shown) [example 174, 2-{4-[bis(2-methylpropyl)amino]-3-{[3-(trifluoromethyl)-1,2,4-thiadiazol-5-yl]amino}phenyl}cyclo-propane-1-carboxylic acid] | <5 | <5 | 12.6 | 12.6
2 | CC(C)CN(c1ccc(C(C)CC(=O)O)cc1Nc1nc(Cl)ns1)C1CCOCC1 (stereo not shown) [Example 21, 3-(3-((3-chloro-1,2,4-thiadiazol-5-yl)amino)-4-(isobutyl(tetrahydro-2H-pyran-4-yl)amino)phenyl)butanoic Acid] | <5 | 5.2 | 2.51 | 31.6
3 | CC(C)CN(CC(C)C)c1ccc(C(C)CC(=O)O)cc1Nc1nnn[nH]1 (stereo not shown) [example 168, 3-{4-[bis(2-methylpropyl)amino]-3-[(1H-1,2,3,4-tetrazol-5-yl)amino]phenyl}butanoic acid] | <5 | <5 | > 10000 | > 10000
4 | CC(C)CN(c1ccc(-c2ccccc2C(=O)O)cc1Nc1nc(C(F)(F)F)ns1)[C@H]1CC[C@@H](O)CC1 [example 279, 4′-[(2-methylpropyl)[(1s,4s)-4-hydroxycyclohexyl]amino]-3′-{[3-(trifluoromethyl)-1,2,4-thiadiazol-5-yl]amino}-[1,1′-biphenyl]-2-carboxylic acid] | <5 | <5 | 20 | 100
5 | CC(C)CN(c1ccc([C@H](C)CC(=O)O)cc1Nc1nc(C2CC2)ns1)C1CCOCC1 [Example 28, (R)-3-(3-((3-cyclopropyl-1,2,4-thiadiazol-5-yl)amino)-4-(isobutyl(tetrahydro-2H-pyran-4-yl)amino)phenyl)butanoic Acid] | <5 | <5 | 5.01 | 6.31
6 | CC(C)CN(c1ccc([C@H](C)CC(=O)O)cc1Nc1nc(C(F)(F)F)ns1)C1CCN(S(C)(=O)=O)CC1 [Example 71] | <5 | <5 | 5.01 | 20
7 | CC(C)CN(c1ccc(C(C)CC(=O)O)cc1NC1=N[C@@H](c2ccccc2)CO1)C1CCCCC1 (stereo partly drawn) [example 153, 3-{4-[cyclohexyl(2-methylpropyl)amino]-3-{[(4S)-4-phenyl-4,5-dihydro-1,3-oxazol-2-yl]amino}phenyl}butanoic acid] | <5 | <5 | 2000 | 3980
8 | COCC(=O)N1CCC(N(CC(C)C)c2ccc([C@H](C)CC(=O)O)cc2Nc2nc(C(F)(F)F)ns2)CC1 [Example 72, (R)-3-(4-(isobutyl(1-(2-methoxyacetyl)piperidin-4-yl)amino)-3-((3-(trifluoromethyl)-1,2,4-thiadiazol-5-yl)amino)phenyl)butanoic Acid] | <5 | <5 | 10 | 39.8
9 | CC(C)CN(c1ccc(-c2cccnc2C(=O)O)cc1Nc1nc2ccccc2o1)C1CCCCC1 [example 290, 3-{3-[(1,3-benzoxazol-2-yl)amino]-4-[cyclohexyl(2-methylpropyl)amino]phenyl}pyridine-2-carboxylic acid] | <5 | <5 | 50.1 | 126
10 | CC(C)CN(c1ccc([C@H](C)CC(=O)O)cc1Nc1cccc(C(F)(F)F)n1)C1CCCCC1 [example 172, (3R)-3-{4-[cyclohexyl(2-methylpropyl)amino]-3-{[6-(trifluoromethyl)pyridin-2-yl]amino}phenyl}butanoic acid] | <5 | <5 | 39.8 | 79.4
11 | CC(C)CN(CC(C)C)c1ccc(-c2ccccc2C(=O)O)cc1Nc1nc2ccccc2[nH]1 [example 297, 3′-[(1H-1,3-benzodiazol-2-yl)amino]-4′-[bis(2-methylpropyl)amino]-[1,1′-biphenyl]-2-carboxylic acid] | <5 | <5 | 20 | 50.1
12 | CC(C)CN(c1ccc(C(C)OCC(=O)O)cc1Nc1nc(Cl)ns1)C1CCCCC1 (stereo not shown) [example 171, 2-(1-{3-[(3-chloro-1,2,4-thiadiazol-5-yl)amino]-4-[cyclohexyl(2-methylpropyl)amino]phenyl}ethoxy)acetic acid] | <5 | <5 | 25.1 | 158
13 | CC(C)CN(c1ccc(C2CC2C(=O)O)cc1Nc1nc(C(F)(F)F)ns1)C1CCCCC1 (single isomer, unassigned) [Example 104, 2-(4-(cyclohexyl(isobutyl)amino)-3-((3-(trifluoromethyl)-1,2,4-thiadiazol-5-yl)amino)phenyl)cyclopropanecarboxylic Acid] | <5 | <5 | 2.51 | 3.16
14 | CC(C)CN(c1ccc(-c2ccccc2C(=O)O)cc1Nc1nc(C(F)(F)F)ns1)C1CCOCC1 [Example 103, 4′-(isobutyl(tetrahydro-2H-pyran-4-yl)amino)-3′-((3-(trifluoromethyl)-1,2,4-thiadiazol-5-yl)amino)-[1,1′-biphenyl]-2-carboxylic Acid] | <5 | <5 | 1.58 | 3.16
15 | COCc1nnc(Nc2cc([C@H](C)CC(=O)O)ccc2N(CC(C)C)C2CCOCC2)[nH]1 [example 213, (3R)-3-(3-{[5-(methoxymethyl)-4H-1,2,4-triazol-3-yl]amino}-4-[(2-methylpropyl)(oxan-4-yl)amino]phenyl)butanoic acid] | <5 | <5 | 200 | 794
16 | CC(C)CN(c1ccc(-c2ccccc2C(=O)O)cc1Nc1nc(C(F)(F)F)ns1)C1CCN(c2nc(C(F)(F)F)ns2)CC1 [Example 92, 4′-(isobutyl(1-(3-(trifluoromethyl)-1,2,4-thiadiazol-5-yl)piperidin-4-yl)amino)-3′-((3-(trifluoromethyl)-1,2,4-thiadiazol-5-yl)amino)-[1,1′-biphenyl]-2-carboxylic Acid] | <5 | 6.1 | 1 | 5.01
17 | CO[C@H]1CC[C@@H](N(CC(C)C)c2ccc([C@H](C)CC(=O)O)cc2Nc2n[nH]c(Cl)n2)CC1 [Example 61, (R)-3-(3-((5-chloro-1H-1,2,4-triazol-3-yl)amino)-4-(isobutyl((cis)-4-methoxycyclohexyl)amino)phenyl)butanoic Acid] | <5 | <5 | 2 | 6.31
18 | CC(C)CN(c1ccc([C@H](C)CC(=O)O)cc1Nc1cnc(C#N)nc1)C1CCOCC1 [Example 17, (R)-3-(3-((2-cyanopyrimidin-5-yl)amino)-4-(isobutyl(tetrahydro-2H-pyran-4-yl)amino)phenyl)butanoic Acid] | <5 | <5 | 2 | 6.31
19 | CC(C)CN(c1ccc(C(C)(C)CC(=O)O)cc1Nc1nc(C(F)(F)F)ns1)C1CCOCC1 [Example 1, 3-(4-(isobutyl(tetrahydro-2H-pyran-4-yl)amino)-3-((3-(trifluoromethyl)-1,2,4-thiadiazol-5-yl)amino)phenyl)-3-methylbutanoic Acid] | <5 | <5 | 0.794 | 3.98
20 | CC(C)CN(c1ccc([C@H](C)CC(=O)O)cc1Nc1ccc(Cl)nc1)C1CCCCC1 [Example 74, (R)-3-(3-((6-chloropyridin-3-yl)amino)-4-(cyclohexyl(isobutyl)amino)phenyl)butanoic Acid] | <5 | 6.5 | 0.794 | 3.98
21 | CO[C@H]1CC[C@H](N(CC(C)C)c2ccc(-c3ccccc3C(=O)O)cc2Nc2nc(C(F)(F)F)ns2)CC1 [Example 111, 4′-(isobutyl((1r,4r)-4-methoxycyclohexyl)amino)-3′-((3-(trifluoromethyl)-1,2,4-thiadiazol-5-yl)amino)-[1,1′-biphenyl]-2-carboxylic Acid] | <5 | <5 | 3.98 | 10
22 | CC(C)CN(c1ccc(-c2cccnc2C(=O)O)cc1Nc1nc(C(F)(F)F)ns1)C1CCOCC1 [example 269, 3-{4-[(2-methylpropyl)(oxan-4-yl)amino]-3-{[3-(trifluoromethyl)-1,2,4-thiadiazol-5-yl]amino}phenyl}pyridine-2-carboxylic acid] | <5 | <5 | 31.6 | 316
